Laboratory results from paper PMC5603535, “A network integration approach for drug-target interaction prediction and computational drug repositioning from heterogeneous information” (Nature Communications, 2017).
Several values for one entry are separate records, joined by “and”; a condition that tells them apart may be missing. Equal values may be shown once. Entries after “also recorded” stand apart in the source; their conditions may differ.

Assays:
COX-2 [1] = target: T1, COX-2 (Homo sapiens, UniProt P35354); experiment: Human recombinant enzyme assay (PGE2 by ELISA): COX-2; format: biochemical; conditions: PGE2 levels, 10 μM arachidonic acid
T1 sequence (P35354 18-604): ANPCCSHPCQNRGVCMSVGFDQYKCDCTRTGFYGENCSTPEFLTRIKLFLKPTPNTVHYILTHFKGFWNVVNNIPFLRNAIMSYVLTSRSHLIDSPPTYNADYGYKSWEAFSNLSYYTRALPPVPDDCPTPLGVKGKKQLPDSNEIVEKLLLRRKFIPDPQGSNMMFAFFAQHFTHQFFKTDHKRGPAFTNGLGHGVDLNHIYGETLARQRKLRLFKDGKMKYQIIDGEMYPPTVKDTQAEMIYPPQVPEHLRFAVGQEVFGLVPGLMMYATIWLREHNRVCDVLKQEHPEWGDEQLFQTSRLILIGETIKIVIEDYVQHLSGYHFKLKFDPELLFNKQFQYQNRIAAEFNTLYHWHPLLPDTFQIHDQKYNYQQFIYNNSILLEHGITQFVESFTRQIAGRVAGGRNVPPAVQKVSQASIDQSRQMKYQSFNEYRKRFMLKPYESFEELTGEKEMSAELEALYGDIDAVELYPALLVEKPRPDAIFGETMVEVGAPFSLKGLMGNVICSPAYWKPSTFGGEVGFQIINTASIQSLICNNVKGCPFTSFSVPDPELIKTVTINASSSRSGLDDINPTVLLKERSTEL
Protocol: (§1) Next, the tissue extracts from the mouse kidney and the peritoneal macrophages were used for COX selective inhibition assays. […] To further evaluate the selectivity of these predicted drugs on COX-1 and COX-2, we also used the human recombinant enzyme assays to measure the levels of PGE 2 under COX-1 and COX-2 catalyzes, respectively.
(§2) Then the 10 μM arachidonic acid was added to start the reaction and allowed the process to proceed for 10 min. The reaction was terminated by diluting the reaction into buffer containing 25 μM indomethacin. The final levels of PGE 2 were measured by ELISA.

[2] = test system: LPS-stimulated peritoneal macrophages; experiment: RT-PCR of proinflammatory factors in LPS-stimulated peritoneal macrophages; format: cell-based, mouse; conditions: LPS 10 ng/ml
Protocol: Lipopolysaccharide (LPS) was used to stimulate the cultured peritoneal macrophages for the cellular inflammation model.
(§3) Peritoneal macrophages were isolated from peritoneum by lavage using 20 ml Dulbecco's modified Eagle’s medium (DMEM) and seeded into six-well plates using […] in DMEM of 10% fetal bovine serum (FBS). Non-adherent cells were removed 6 h later, whereas adherent cells were refed with DMEM of 10% FBS and allowed to recover overnight. […] Cells were harvested for subsequent analysis.
Total RNA was extracted from the whole-cell lysates using the Trnzol-A^+ reagent (Tiangen, Cat. no. DP421, China). Reverse transcription was performed using TIANScript RT Kit (Tiangen, Cat. no. KR104-02, China). All real-time PCR reactions were carried out on ABI ViiA 7 Real-Time System (Life Technologies, USA) using TransStart Top Green qPCR SuperMix (Transgen, Cat. no. AQ131-03, China). The formula 2^−ΔΔCt was used to calculate the relative expression. The expression of the housekeeping gene GAPDH was used as an internal control.

COX = COX fluorescent activity assay on mouse kidney lysates; format: biochemical
Protocol: We further sought to experimentally validate the bioactivities of the COX inhibitors predicted by DTINet (Methods). First, we tested their inhibitory potencies on the mouse kidney lysates using the COX fluorescent activity assays.
(§4) Following stimulation, kidneys were harvested from mice, and macrophages from the above treatment were homogenized in 5 ml of cold phosphate-buffered saline (PBS) containing protease inhibitors and centrifuged at 10,000×g for 15 min at 4 °C. The supernatant was assayed by the COX fluorescent activity assay kit according to the manufacturer’s instructions.

COX-2 [3] = target: T2, COX-2 (Mus musculus, UniProt Q05769); experiment: COX selective inhibition assay on tissue extracts (COX fluorescent activity, distinguished with SC-560/Dup-697): COX-2; format: biochemical; conditions: mouse peritoneal macrophage lysates
T2 construct: the tissue extracts from the mouse kidney and the peritoneal macrophages; from tissue; host or cells: mouse kidney and thioglycollate-elicited peritoneal macrophages (C57BL/6J), homogenate supernatant
T2 sequence (Q05769 18-604): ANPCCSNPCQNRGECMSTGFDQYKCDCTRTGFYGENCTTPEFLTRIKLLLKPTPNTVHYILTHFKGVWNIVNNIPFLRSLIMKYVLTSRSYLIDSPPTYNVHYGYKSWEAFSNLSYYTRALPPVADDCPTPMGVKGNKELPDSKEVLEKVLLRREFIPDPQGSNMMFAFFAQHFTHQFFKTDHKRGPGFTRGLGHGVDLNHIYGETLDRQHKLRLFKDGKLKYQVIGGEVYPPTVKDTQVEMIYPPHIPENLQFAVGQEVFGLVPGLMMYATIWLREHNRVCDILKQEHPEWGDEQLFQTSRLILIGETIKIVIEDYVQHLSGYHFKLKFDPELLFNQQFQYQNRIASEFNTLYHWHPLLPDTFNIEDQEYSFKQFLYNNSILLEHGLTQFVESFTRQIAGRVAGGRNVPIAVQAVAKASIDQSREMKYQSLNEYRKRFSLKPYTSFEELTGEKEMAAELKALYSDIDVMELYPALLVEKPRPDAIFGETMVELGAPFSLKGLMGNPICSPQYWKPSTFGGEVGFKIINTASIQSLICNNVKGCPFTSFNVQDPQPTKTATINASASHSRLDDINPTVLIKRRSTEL
Protocol: as §1, §3, §4

COX-2 [4] = target: T1, COX-2; conditions: compounds at their IC50 concentrations, 2 h
COX-1 [5] = target: T3, COX-1 (Mus musculus, UniProt P22437); experiment: COX selective inhibition assay on tissue extracts (COX fluorescent activity, distinguished with SC-560/Dup-697): COX-1; format: biochemical; conditions: mouse peritoneal macrophage lysates
T3 construct: the tissue extracts from the mouse kidney and the peritoneal macrophages; from tissue; host or cells: mouse kidney and thioglycollate-elicited peritoneal macrophages (C57BL/6J), homogenate supernatant
T3 sequence (P22437 27-602): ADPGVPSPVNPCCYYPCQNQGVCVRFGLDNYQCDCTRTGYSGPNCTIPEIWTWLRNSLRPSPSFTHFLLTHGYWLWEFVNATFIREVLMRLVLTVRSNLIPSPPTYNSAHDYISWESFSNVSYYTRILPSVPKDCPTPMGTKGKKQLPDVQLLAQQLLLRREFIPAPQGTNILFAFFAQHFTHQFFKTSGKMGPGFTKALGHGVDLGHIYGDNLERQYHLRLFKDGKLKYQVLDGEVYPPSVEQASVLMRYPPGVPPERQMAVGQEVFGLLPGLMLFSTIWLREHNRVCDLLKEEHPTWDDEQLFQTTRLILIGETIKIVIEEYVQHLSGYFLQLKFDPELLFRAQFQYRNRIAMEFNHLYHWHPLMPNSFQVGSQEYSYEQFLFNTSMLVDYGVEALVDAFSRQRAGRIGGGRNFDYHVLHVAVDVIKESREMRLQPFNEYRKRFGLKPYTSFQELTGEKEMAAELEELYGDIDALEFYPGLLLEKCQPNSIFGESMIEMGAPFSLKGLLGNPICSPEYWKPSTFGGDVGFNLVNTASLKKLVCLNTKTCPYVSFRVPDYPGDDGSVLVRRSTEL
Protocol: as §1, §3, §4

alpha2-containing GlyRs = test system: alpha2-containing GlyRs; design: method as in Thio et al., 2003; conditions: embryonic mouse hippocampal neurons, low-affinity binding manner, ref Thio et al., 2003; cited from earlier work
recombinant human COX-1 = recombinant human COX-1 (Homo sapiens, UniProt P23219); experiment: Human recombinant enzyme assay (PGE2 by ELISA): COX-1; format: biochemical; conditions: PGE2 levels, 10 μM arachidonic acid
Protocol: as §1, §2

[6] = test system: GABA B-subtype (GABA-B) receptors; design: method as in ref 27 (Wu et al., 2011); conditions: previous studies, ref 27 (Wu et al., 2011); cited from earlier work
[7] = test system: GABA A-subtype (GABA-A) receptors; design: method as in ref 28 (Wassef et al., 2003); conditions: previous studies, ref 28 (Wassef et al., 2003); cited from earlier work
GlyRs = test system: GlyRs; design: method as in Liu et al., 2009; conditions: rat hippocampal neurons, ref Liu et al., 2009; cited from earlier work
COX-1 [8] = conditions: read-out: IC50 COX-1; common NSAIDs; cited from earlier work
COX-2 [9] = conditions: cited from earlier work

recombinant human COX-1, sequence (P23219 24-599): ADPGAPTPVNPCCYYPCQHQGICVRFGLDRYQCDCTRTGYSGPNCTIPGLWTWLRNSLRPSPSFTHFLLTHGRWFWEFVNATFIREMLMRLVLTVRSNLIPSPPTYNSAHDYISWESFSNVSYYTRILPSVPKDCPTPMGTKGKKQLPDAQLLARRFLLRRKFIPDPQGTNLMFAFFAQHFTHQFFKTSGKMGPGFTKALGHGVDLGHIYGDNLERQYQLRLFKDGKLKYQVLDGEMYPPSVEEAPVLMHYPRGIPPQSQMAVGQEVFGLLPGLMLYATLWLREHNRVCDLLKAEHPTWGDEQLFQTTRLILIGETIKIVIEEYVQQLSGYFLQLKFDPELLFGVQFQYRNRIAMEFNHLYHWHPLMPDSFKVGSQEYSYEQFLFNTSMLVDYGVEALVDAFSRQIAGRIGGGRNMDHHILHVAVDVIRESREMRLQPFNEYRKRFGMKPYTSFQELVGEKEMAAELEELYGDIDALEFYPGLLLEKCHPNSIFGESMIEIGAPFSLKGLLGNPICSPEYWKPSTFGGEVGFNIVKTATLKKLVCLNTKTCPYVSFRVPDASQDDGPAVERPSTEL

Row | Structure (SMILES) | IC50 (COX-2 [1]) [µM] | IC50 (COX) | Relative COX activity inhibition (%) COX-2 (COX-2 [3]) [%] | inhibition of the binding of [3H] celecoxib to COX-2 (COX-2 [4]) | Relative COX activity inhibition (%) COX-1 (COX-1 [5]) [%] | other results
1 | NCCCC(O)(P(=O)(O)O)P(=O)(O)O [Alendronate] | 184 | 160 µM | 43 | ~40.67% | 57 | IL-12p35 production induced by LPS (mRNA, RT-PCR) [2]: significantly inhibited
2 | CNC1=Nc2ccc(Cl)cc2C(c2ccccc2)=[N+]([O-])C1 [Chlordiazepoxide] |  |  |  |  |  | effect on alpha2-containing GlyRs (alpha2-containing GlyRs): block
3 | CCCNC(=O)NS(=O)(=O)c1ccc(Cl)cc1 [Chlorpropamide] | 152 | 290 µM and ~300 µM | 63 | ~14.00% | 37 | IC50 (recombinant human COX-1): 224 µM
4 | CN1CCN(C2=Nc3cc(Cl)ccc3Nc3ccccc32)CC1 [Clozapine] |  |  |  |  |  | interaction with GABA-B receptors [6]: direct interaction; effect on GABA-A receptors in the cortex [7]: antagonize; effect on GlyRs (GlyRs): non-competitive antagonist
5 | O=C1CN=C(c2ccccc2)c2cc([N+](=O)[O-])ccc2N1 [Nitrazepam] |  |  |  |  |  | effect on alpha2-containing GlyRs (alpha2-containing GlyRs): block
6 | CCCc1nc2c(C)cc(-c3nc4ccccc4n3C)cc2n1Cc1ccc(-c2ccccc2C(=O)O)cc1 [Telmisartan] | 91.8 | 56.1 µM | 37 | about 48.33% | 63 | IL-12p35 production induced by LPS (mRNA, RT-PCR) [2]: significantly inhibited; also recorded: much stronger suppression effect; LPS induced expression of IL-6 (mRNA, RT-PCR) [2]: strong inhibitory effect; LPS induced expression of TNF-α (mRNA, RT-PCR) [2]: strong inhibitory effect; induction of IL-1β (mRNA, RT-PCR) [2]: strongest suppression effect; IC50 (recombinant human COX-1): 42 µM
8 | CS(=O)(=O)c1ccc(C2=C(c3ccccc3)C(=O)OC2)cc1 [rofecoxib] |  |  |  |  |  | IC50 (COX-1 [8]): […]; IC50 (COX-2 [9]): 25 µM
